Tests used:
Assay type in all cases: functional
NCI-H226 = assay: Antiproliferative activity against human NCI-H226 cells assessed as cell growth at 50 uM by SRB assay; details: read-out: Activity
CAKI-1 = assay: Antiproliferative activity against human Caki1 cells assessed as cell growth at 0.5 uM by SRB assay; details: read-out: Activity
RXF 393 [1] = assay: Antiproliferative activity against human RXF393 cells assessed as cell growth at 500 uM by SRB assay; details: read-out: Activity
Malme-3M [2] = assay: Antiproliferative activity against human MALME-3M cells assessed as cell growth at 500 uM by SRB assay; details: read-out: Activity
SK-OV-3 = assay: Antiproliferative activity against human SKOV3 cells assessed as cell growth at 0.5 uM by SRB assay; details: read-out: Activity
HOP-92 = assay: Antiproliferative activity against human HOP92 cells assessed as cell growth at 500 uM by SRB assay; details: read-out: Activity
SF-268 = assay: Antiproliferative activity against human SF268 cells assessed as cell growth at 5 uM by SRB assay; details: read-out: Activity
CCRF-CEM = assay: Antiproliferative activity against human CCRF-CEM cells assessed as cell growth at […] by SRB assay; details: read-out: Activity
MDA-MB-231 = assay: Antiproliferative activity against human MDA-MB-231 cells by SRB assay
SK-MEL-2 [3] = assay: Antiproliferative activity against human SK-MEL-2 cells assessed as cell growth at 0.5 uM by SRB assay; details: read-out: Activity
MCF7 = assay: Antiproliferative activity against human MCF7 cells assessed as cell growth at 50 uM by SRB assay; details: read-out: Activity
HT-29 [4] = assay: Antiproliferative activity against human HT-29 cells assessed as cell growth at 5 uM by SRB assay; details: read-out: Activity
T47D = assay: Antiproliferative activity against human T47D cells assessed as cell growth at 0.5 uM by SRB assay; details: read-out: Activity
NCI-H460 [5] = assay: Antiproliferative activity against human NCI-H460 cells assessed as cell growth at 5 uM by SRB assay; details: read-out: Activity
NCI-H23 [6] = assay: Antiproliferative activity against human NCI-H23 cells assessed as cell growth at 5 uM by SRB assay; details: read-out: Activity
RXF 393 [7] = assay: Antiproliferative activity against human RXF393 cells assessed as cell growth at 0.5 uM by SRB assay; details: read-out: Activity
NCI-H23 [8] = assay: Antiproliferative activity against human NCI-H23 cells by SRB assay
HOP-62 [9] = assay: Antiproliferative activity against human HOP62 cells assessed as cell growth at 50 uM by SRB assay; details: read-out: Activity
HT-29 [10] = assay: Antiproliferative activity against human HT-29 cells assessed as cell growth at 500 uM by SRB assay; details: read-out: Activity
NCI/ADR-RES = assay: Antiproliferative activity against human NCI/ADR-RES cells assessed as cell growth at 0.5 uM by SRB assay; details: read-out: Activity
TK-10 = assay: Antiproliferative activity against human TK10 cells assessed as cell growth at 0.5 uM by SRB assay; details: read-out: Activity
HCC 2998 = assay: Antiproliferative activity against human HCC2998 cells assessed as cell growth at 500 uM by SRB assay; details: read-out: Activity
SN12C = assay: Antiproliferative activity against human SN12C cells assessed as cell growth at 5 uM by SRB assay; details: read-out: Activity
UACC-62 = assay: Antiproliferative activity against human UACC62 cells assessed as cell growth at 50 uM by SRB assay; details: read-out: Activity
EKVX = assay: Antiproliferative activity against human EKVX cells assessed as cell growth at 50 uM by SRB assay; details: read-out: Activity
SF-295 = assay: Antiproliferative activity against human SF295 cells assessed as cell growth at 5 uM by SRB assay; details: read-out: Activity
NCI-H460 [11] = assay: Antiproliferative activity against human NCI-H460 cells assessed as cell growth at 0.5 uM by SRB assay; details: read-out: Activity
HOP-62 [12] = assay: Antiproliferative activity against human HOP62 cells assessed as cell growth at 0.5 uM by SRB assay; details: read-out: Activity
IGROV-1 = assay: Antiproliferative activity against human IGROV1 cells assessed as cell growth at 50 uM by SRB assay; details: read-out: Activity
KM12 = assay: Antiproliferative activity against human KM12 cells assessed as cell growth at 500 uM by SRB assay; details: read-out: Activity
UACC-257 = assay: Antiproliferative activity against human UACC257 cells by SRB assay
HCT-15 = assay: Antiproliferative activity against human HCT15 cells assessed as cell growth at 50 uM by SRB assay; details: read-out: Activity
MOLT-4 = assay: Antiproliferative activity against human MOLT4 cells assessed as cell growth at 5 uM by SRB assay; details: read-out: Activity
RXF 393 [13] = assay: Antiproliferative activity against human RXF393 cells assessed as cell growth at 5 uM by SRB assay; details: read-out: Activity
SK-MEL-2 [14] = assay: Antiproliferative activity against human SK-MEL-2 cells assessed as cell growth at 50 uM by SRB assay; details: read-out: Activity
SK-MEL-28 = assay: Antiproliferative activity against human SK-MEL-28 cells by SRB assay
OVCAR-8 = assay: Antiproliferative activity against human OVCAR8 cells assessed as cell growth at 5 uM by SRB assay; details: read-out: Activity
Malme-3M [15] = assay: Antiproliferative activity against human MALME-3M cells assessed as cell growth at 0.5 uM by SRB assay; details: read-out: Activity
SR = assay: Antiproliferative activity against human SR cells assessed as cell growth at 0.5 uM by SRB assay; details: read-out: Activity
[16] = Antiproliferative activity against human Hs 578T cells by SRB assay
RXF 393 [17] = assay: Antiproliferative activity against human RXF393 cells by SRB assay
A549 = assay: Antiproliferative activity against human A549 cells assessed as cell growth at 500 uM by SRB assay; details: read-out: Activity
[18] = read-out: LC50 (the source's name)
[19] = read-out: pLC50 (the source's name) (converted)

Structure (SMILES): O=C(/C=C/c1ccc(O)c(O)c1)OCCc1ccc(O)c(O)c1
- growth at 50 µM (NCI-H226): 90%
- growth at 0.5 µM (CAKI-1): 82%
- growth at 500 µM (RXF 393 [1]): 89%
- growth at 500 µM (Malme-3M [2]): 74%
- growth at 0.5 µM (SK-OV-3): 99%
- growth at 500 µM (HOP-92): 29%
- growth at 5 µM (SF-268): 91%
- growth (CCRF-CEM): -44%
- GI50 (MDA-MB-231; read-out: GI50): 11.1 µM
- CC50 (MDA-MB-231; [18]): > 50 µM
- TGI (MDA-MB-231; read-out: TGI): > 50 µM
- GI50 (MDA-MB-231; read-out: pGI50 (converted)): 10.5 µM
- CC50 (MDA-MB-231; [19]): > 50.1 µM
- TGI (MDA-MB-231; read-out: pTGI): > 50.1 µM
- growth at 0.5 µM (SK-MEL-2 [3]): 86%
- growth at 50 µM (MCF7): 92%
- growth at 5 µM (HT-29 [4]): 103%
- growth at 0.5 µM (T47D): 98%
- growth at 5 µM (NCI-H460 [5]): 92%
- growth at 5 µM (NCI-H23 [6]): 95%
- growth at 0.5 µM (RXF 393 [7]): 88%
- GI50 (NCI-H23 [8]; read-out: GI50): 11.6 µM
- CC50 (NCI-H23 [8]; [18]): > 50 µM
- TGI (NCI-H23 [8]; read-out: TGI): > 50 µM
- GI50 (NCI-H23 [8]; read-out: pGI50 (converted)): 11.5 µM
- CC50 (NCI-H23 [8]; [19]): > 50.1 µM
- TGI (NCI-H23 [8]; read-out: pTGI): > 50.1 µM
- growth at 50 µM (HOP-62 [9]): 97%
- growth at 500 µM (HT-29 [10]): 99%
- growth at 0.5 µM (NCI/ADR-RES): 97%
- growth at 0.5 µM (TK-10): 92%
- growth at 500 µM (HCC 2998): 80%
- growth at 5 µM (SN12C): 80%
- growth at 50 µM (UACC-62): 84%
- growth at 50 µM (EKVX): 88%
- growth at 5 µM (SF-295): 89%
- growth at 0.5 µM (NCI-H460 [11]): 95%
- growth at 0.5 µM (HOP-62 [12]): 92%
- growth at 50 µM (IGROV-1): 98%
- growth at 500 µM (KM12): 59%
- GI50 (UACC-257; read-out: GI50): 15.4 µM
- CC50 (UACC-257; [18]): > 50 µM
- TGI (UACC-257; read-out: TGI): > 50 µM
- GI50 (UACC-257; read-out: pGI50 (converted)): 15.5 µM
- CC50 (UACC-257; [19]): > 50.1 µM
- TGI (UACC-257; read-out: pTGI): > 50.1 µM
- growth at 50 µM (HCT-15): 78%
- growth at 5 µM (MOLT-4): 97%
- growth at 5 µM (RXF 393 [13]): 84%
- growth at 50 µM (SK-MEL-2 [14]): 91%
- GI50 (SK-MEL-28; read-out: GI50): 6.51 µM
- CC50 (SK-MEL-28; [18]): > 50 µM
- TGI (SK-MEL-28; read-out: TGI): > 50 µM
- GI50 (SK-MEL-28; read-out: pGI50 (converted)): 6.46 µM
- CC50 (SK-MEL-28; [19]): > 50.1 µM
- TGI (SK-MEL-28; read-out: pTGI): > 50.1 µM
- growth at 5 µM (OVCAR-8): 79%
- growth at 0.5 µM (Malme-3M [15]): 91%
- growth at 0.5 µM (SR): 92%
- GI50 ([16]; read-out: GI50): 9.75 µM
- CC50 [16, 18]: > 50 µM
- TGI ([16]; read-out: TGI): > 50 µM
- GI50 ([16]; read-out: pGI50 (converted)): 9.77 µM
- CC50 [16, 19]: > 50.1 µM
- TGI ([16]; read-out: pTGI): > 50.1 µM
- GI50 (RXF 393 [17]; read-out: GI50): 15.5 µM
- CC50 (RXF 393 [17]; [18]): > 50 µM
- TGI (RXF 393 [17]; read-out: TGI): > 50 µM
- GI50 (RXF 393 [17]; read-out: pGI50 (converted)): 15.5 µM
- CC50 (RXF 393 [17]; [19]): > 50.1 µM
- TGI (RXF 393 [17]; read-out: pTGI): > 50.1 µM
- growth at 500 µM (A549): 96%
